Test system: p53
Test: Real-time RT-PCR in PMCs from dialysed rats
Format: in vivo, rat
Conditions: peritoneal cells from rats dialysed four weeks, aliskiren 0.1 or 1 mg/Kg, FIG. 14
Experimental: The rats were exposed daily for four weeks to carrier (saline serum), 1.5% PDF, 2.3% PDF or 4.5% PDF supplemented by, 0.1 mg/Kg aliskiren or 1 mg/Kg aliskiren. The data is expressed as mean±SEM, n=6 rats per group. * p<0.05, compared to the group treated with carrier in the absence of aliskiren (carrier). # p<0.05, compared to their respective groups treated with PDFs in the absence of aliskiren. […]
At the end of the experimental period (four weeks), 30 ml of a commercial PDF with 2.3% glucose (Fresenius Medical Car, Bad Homburg, Germany) was administered intraperitoneally using a 22G needle. […] Their body weight was measured at the start and end of the experimental period. […]
The blood and dialysate samples were centrifuged and stored at −20° C. The concentrations of creatinine and glucose in the serum and dialysate were measured using enzymatic methods. The peritoneal transport of solutes was calculated, on one hand, as the glucose concentration in the dialysate 2 hours after the PET relative to the initial glucose concentration in the PDF (D2/D0 glucose) and, on the other, as the dialysate/plasma creatinine concentration ratio (D2/P2 creatinine) 2 h after the PET. […]
The RNA expression was evaluated by real-time RT-PCR in PMCs. […] RNA quality and concentration was evaluated by spectrophotometry (Infinite 200, Tecan, Salzburg, Austria) using 1 μl of the RNA sample. […]

COCCCOc1cc(C[C@@H](C[C@H](N)[C@@H](O)C[C@H](C(=O)NCC(C)(C)C(N)=O)C(C)C)C(C)C)ccc1OC [aliskiren]
RNAm expression of pro-apoptotic protein p53: reduced

Source: patent US20130065964A1, “PERITONEAL DIALYSIS SOLUTION” (UNIVERSIDAD DE CASTILLA LA MANCHA, priority 2010, published 2013)
